Measured values: PMC6480460, “Derivatives of the β-Crinane Amaryllidaceae Alkaloid Haemanthamine as Multi-Target Directed Ligands for Alzheimer’s Disease” (Molecules, 2019)
Read-outs that look alike come from different tables or passages of the source.

Assays:
in vitro = conditions: for PAMPA-BBB Permeability (Pe) / Papp: PBS:EtOH (70:30) as solvent, mean ± SD of 2 independent experiments; for PAMPA-BBB prediction of penetration in the CNS: class from Pe; for Papp: pig, PAMPA, PAMPA-BBB Permeability (Pe)
Procedure: The PAMPA assay was performed as previously described.

hAChE [1] = biological target: T1, hAChE (Homo sapiens, UniProt P22303); test: biochemical; type: biochemical; conditions: for IC50: mean ± SEM of three independent measurements, each in triplicate
Procedure: (§1) The hAChE and hBuChE activities were determined using a modified method of Ellman with acetylthiocholine iodide (ATChI) and butyrylthiocholine iodide (BuTChI) as substrates, respectively.

hBuChE [2] = biological target: T2, hBuChE (Homo sapiens, UniProt P06276); test: biochemical; type: biochemical
Procedure: as §1

GSK-3β = GSK-3β (Homo sapiens, UniProt P49841); test: GSK-3β assay (Kinase-Glo Kit); type: biochemical; conditions: for inhibition at 10 µM: tested at 10 µM compound concentration, read-out: GSK-3β (% inhib.)
Procedure: The GSK-3β assay was performed by using Kinase-Glo Kit obtained from Promega (Promega Biotech Iberica, SL, Madrid, Spain) as described previously.

[3] = system: PANC-1 (pancreas epithelioid carcinoma); test: WST-1 cytotoxicity assay, PANC-1; type: cell-based; conditions: Homo sapiens, c = 10 μM, 48 h, percent of proliferation of untreated control cells, read-out: Cell proliferation, PANC-1
Description: (§2) Selected human tumor and non-tumor cell lines {Jurkat (acute T cell leukemia), MOLT-4 (acute lymphoblastic leukemia), A549 (lung carcinoma), HT-29 (colorectal adenocarcinoma), PANC-1 (pancreas epithelioid carcinoma), A2780 (ovarian carcinoma), HeLa (cervix adenocarcinoma), MCF-7 (breast adenocarcinoma), SAOS-2 (osteosarcoma) and MRC-5 (normal lung fibroblasts)} were purchased from either ATCC (Manassas, VA, USA) or Sigma-Aldrich (St. Louis, MO, USA) and cultured according to the provider’s culture method guidelines. […] Cells in the maximum range of either 10 passages for primary cell line (MRC-5), or in the maximum range of 20 passages for cancer cell lines (Jurkat, MOLT-4, A549, HT-29, PANC-1, A2780, HeLa, MCF-7 and SAOS-2) and in an exponential growth phase were used for this study.
(§3) The WST-1 (Roche, Mannheim, Germany) reagent was used to determine the cytostatic effect of the test compounds. WST-1 is designed for the spectrophotometric quantification of cell proliferation, growth, viability and chemosensitivity in cell populations using a 96-well-plate format (Sigma, St. Louis, MO, USA). The principle of WST-1 is based on photometric detection of the reduction of tetrazolium salt to a colored formazan product. The cells were seeded at a previously established optimal density (30,000 Jurkat, 25,000 MOLT-4, 500 A549, 1500 HT-29, 2000 PANC-1, 5000 A2780, 500 HeLa, 1500 MCF-7, 2000 SAOS-2 and 2000 MRC-5 cells/well) in 100 µL of culture medium, and adherent cells were allowed to reattach overnight. Thereafter, the cells were treated with 100 µL of either corresponding alkaloids or doxorubicin stock solutions to obtain the desired concentrations and incubated in 5% CO2 at 37 °C. WST-1 reagent diluted 4-fold with PBS (50 µL) was added 48 h after treatment. Absorbance was measured after 3 h incubation with WST-1 at 440 nm. The measurements were performed in a Tecan Infinite M200 spectrometer (Tecan Group, Männedorf, Switzerland). All experiments were performed at least three times with triplicate measurements at each drug concentration per experiment. The viability was quantified as described previously according to the following formula: (%) viability = (Asample − Ablank)/(Acontrol − Ablank) × 100, where A is the absorbance of the employed WST-1 formazan measured at 440 nm. The viability of the treated cells was normalized to the viability of cells treated with 0.1% DMSO (Sigma-Aldrich) as a vehicle control.

[4] = system: Jurkat (acute T cell leukemia); test: WST-1 cytotoxicity assay, Jurkat; type: cell-based; conditions: Homo sapiens, c = 10 μM, 48 h, percent of proliferation of untreated control cells
Description: as §2, §3

[5] = system: HeLa (cervix adenocarcinoma); test: WST-1 cytotoxicity assay, HeLa; type: cell-based; conditions: Homo sapiens, c = 10 μM, 48 h, percent of proliferation of untreated control cells, read-out: Cell proliferation, HeLa
Description: as §2, §3

hBuChE [6] = biological target: T2, hBuChE; test: BuChE inhibition mechanism (Lineweaver-Burk kinetic analysis); type: biochemical; conditions: for mechanism of inhibition of hBuChE: Lineweaver-Burk plot, Km and Vm decreased
Procedure: (§4) The antiproliferative effect of 1a–1m at 10 µM single-dose treatment regimen was assessed using WST-1 tetrazolium salt assay. […] Kinetic analysis of 1j and 1m was used for the determination of their inhibition pattern against both hAChE and hBuChE. […] The Km and Vm values were calculated from the Lineweaver-Burk plot.

[7] = system: A2780 (ovarian carcinoma); test: WST-1 cytotoxicity assay, A2780; type: cell-based; conditions: Homo sapiens, c = 10 μM, 48 h, percent of proliferation of untreated control cells, read-out: Cell proliferation, A2780
Description: as §2, §3

SAOS-2 (osteosarcoma) = test: WST-1 cytotoxicity assay, SAOS-2; type: cell-based; conditions: Homo sapiens, c = 10 μM, 48 h, percent of proliferation of untreated control cells, read-out: Cell proliferation, SAOS-2
Description: as §2, §3

[8] = system: MRC-5 (normal lung fibroblasts); test: WST-1 cytotoxicity assay, MRC-5; type: cell-based; conditions: Homo sapiens, MRC5; c = 10 μM, 48 h, percent of proliferation of untreated control cells; read-out: Cell proliferation, MRC-5
Description: as §2, §3

[9] = system: MOLT-4 (acute lymphoblastic leukemia); test: WST-1 cytotoxicity assay, MOLT-4; type: cell-based; conditions: Homo sapiens, c = 10 μM, 48 h, percent of proliferation of untreated control cells, read-out: Cell proliferation, MOLT-4
Description: as §2, §3

hAChE [10] = biological target: T1, hAChE; test: AChE inhibition mechanism (Lineweaver-Burk kinetic analysis); type: biochemical; conditions: Lineweaver-Burk plot; Km and Vm decreased
Procedure: as §4

[11] = system: HT-29 (colorectal adenocarcinoma); test: WST-1 cytotoxicity assay, HT-29; type: cell-based; conditions: Homo sapiens, c = 10 μM, 48 h, percent of proliferation of untreated control cells, read-out: Cell proliferation, HT-29
Description: as §2, §3

[12] = system: MCF-7 (breast adenocarcinoma); test: WST-1 cytotoxicity assay, MCF-7; type: cell-based; conditions: Homo sapiens, MCF7; c = 10 μM, 48 h, percent of proliferation of untreated control cells; read-out: Cell proliferation, MCF-7
Description: as §2, §3

A549 (lung carcinoma) = test: WST-1 cytotoxicity assay, A549; type: cell-based; conditions: Homo sapiens, c = 10 μM, 48 h, percent of proliferation of untreated control cells, read-out: Cell proliferation, A549
Description: as §2, §3

[13] = system: human cell lines (Jurkat, MOLT-4, A549, HT-29, PANC-1, A2780, HeLa, MCF-7, SAOS-2 and MRC-5); test: WST-1 antiproliferative screen, whole panel of tested human cell lines; type: cell-based; conditions: 10 µM single-dose, 48 h of exposure
Procedure: as §4, with “plot. […]” for “plot.”
The WST-1 (Roche, Mannheim, Germany) reagent was used to determine the cytostatic effect of the test compounds. WST-1 is designed for the spectrophotometric quantification of cell proliferation, growth, viability and chemosensitivity in cell populations using a 96-well-plate format (Sigma, St. Louis, MO, USA). […] Absorbance was measured after 3 h incubation with WST-1 at 440 nm. […] The viability was quantified as described previously according to the following formula: (%) viability = (Asample − Ablank)/(Acontrol − Ablank) × 100, where A is the absorbance of the employed WST-1 formazan measured at 440 nm. […]

[14] = mean ± SEM of three independent measurements, each in triplicate, read-out: hBuChE IC50

T1 sequence (P22303 32-614): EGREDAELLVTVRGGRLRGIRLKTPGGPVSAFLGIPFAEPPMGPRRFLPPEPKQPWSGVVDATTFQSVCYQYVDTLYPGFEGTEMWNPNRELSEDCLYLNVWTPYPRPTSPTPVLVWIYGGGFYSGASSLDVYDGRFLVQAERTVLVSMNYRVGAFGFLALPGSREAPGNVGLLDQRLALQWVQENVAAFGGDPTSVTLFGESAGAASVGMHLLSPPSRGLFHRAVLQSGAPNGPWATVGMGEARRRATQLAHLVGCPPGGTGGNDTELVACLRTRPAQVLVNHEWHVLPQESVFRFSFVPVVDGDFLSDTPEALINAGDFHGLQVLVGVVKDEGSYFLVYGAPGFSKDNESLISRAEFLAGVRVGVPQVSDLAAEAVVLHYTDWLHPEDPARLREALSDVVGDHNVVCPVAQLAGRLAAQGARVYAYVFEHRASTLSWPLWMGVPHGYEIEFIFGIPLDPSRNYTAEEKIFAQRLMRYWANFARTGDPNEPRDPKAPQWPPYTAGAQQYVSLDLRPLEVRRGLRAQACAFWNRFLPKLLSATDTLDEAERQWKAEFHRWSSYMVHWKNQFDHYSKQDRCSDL
T2 sequence (P06276 29-602): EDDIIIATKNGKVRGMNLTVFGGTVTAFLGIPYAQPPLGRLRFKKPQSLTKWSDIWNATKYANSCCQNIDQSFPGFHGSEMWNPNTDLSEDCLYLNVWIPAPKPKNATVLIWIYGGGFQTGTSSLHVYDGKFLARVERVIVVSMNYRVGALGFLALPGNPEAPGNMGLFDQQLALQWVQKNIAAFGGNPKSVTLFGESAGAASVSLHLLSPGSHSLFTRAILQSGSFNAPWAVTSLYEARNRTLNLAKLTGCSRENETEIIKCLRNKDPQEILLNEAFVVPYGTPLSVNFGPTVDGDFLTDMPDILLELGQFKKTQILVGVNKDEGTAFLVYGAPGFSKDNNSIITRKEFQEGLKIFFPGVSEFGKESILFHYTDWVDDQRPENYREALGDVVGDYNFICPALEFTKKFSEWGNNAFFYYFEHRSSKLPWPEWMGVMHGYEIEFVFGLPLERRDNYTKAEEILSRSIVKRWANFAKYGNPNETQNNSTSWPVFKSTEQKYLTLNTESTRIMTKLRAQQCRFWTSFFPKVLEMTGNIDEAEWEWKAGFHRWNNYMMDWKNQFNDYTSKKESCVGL
Chain of GSK-3β (P49841 whole entry): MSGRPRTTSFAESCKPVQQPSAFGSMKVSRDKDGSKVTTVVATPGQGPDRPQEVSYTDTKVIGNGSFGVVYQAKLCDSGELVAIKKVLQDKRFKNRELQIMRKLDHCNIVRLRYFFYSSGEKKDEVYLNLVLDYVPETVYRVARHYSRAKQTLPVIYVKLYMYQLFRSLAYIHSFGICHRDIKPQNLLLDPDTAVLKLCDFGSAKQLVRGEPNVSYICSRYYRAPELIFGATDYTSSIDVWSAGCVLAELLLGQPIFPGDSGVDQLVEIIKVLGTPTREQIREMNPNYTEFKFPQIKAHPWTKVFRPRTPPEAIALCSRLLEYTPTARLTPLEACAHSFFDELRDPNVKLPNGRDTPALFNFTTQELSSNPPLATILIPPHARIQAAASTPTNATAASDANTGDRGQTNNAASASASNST

Compound | PAMPA-BBB Permeability (Pe) (in vitro) | PAMPA-BBB prediction of penetration in the CNS (in vitro) | Papp (in vitro) [×10⁻⁶ cm/s] | IC50 (hAChE [1]) [µM] | IC50 (hBuChE [2]; [14]) [µM] | inhibition at 10 µM (GSK-3β) [%] | activity at 10 µM [3] [%] | activity at 10 µM [4] [%] | activity at 10 µM [5] [%] | mechanism of inhibition of hBuChE (hBuChE [6]) | activity at 10 µM [7] [%] | activity at 10 µM (SAOS-2 (osteosarcoma)) [%] | activity at 10 µM [8] [%] | viability at 10 µM [9] [%] | mechanism of inhibition of hAChE (hAChE [10]) | activity at 10 µM [11] [%] | activity at 10 µM [12] [%] | activity at 10 µM (A549 (lung carcinoma)) [%] | other results
COC1C=CC23c4cc5c(cc4CN(CC2OC(=O)c2ccccc2C)C3C1)OCO5 (stereo not shown) [Compound 1j, 11-O-(2-Methylbenzoyl)haemanthamine] | 5.8 ± 0.9 10^−6 cm s^−1 | CNS+ (CNS(+): high BBB permeation predicted with Pe (10^−6 cm.s^−1) > 4.0) | > 4 | 18.2 ± 1.3 | 6.6 ± 1.2 | 15 ± 6 | 95 ± 6 | 95 ± 11 | 104 ± 4 | mixed mechanism of inhibition | 129 ± 11 | 97 ± 17 | 112 ± 9 | 91 ± 3 | mixed mechanism of inhibition | 98 ± 6 | 112 ± 3 | 96 ± 8 | PAMPA-BBB prediction of penetration in the CNS (in vitro; listed as 18j): CNS +; SI for hAChE (hAChE [1]): 0.4; Ki (hBuChE [6]; from Lineweaver-Burk kinetic analysis): 12.5 ± 0.45 µM
COC1C=CC23c4cc5c(cc4CN(CC2OC(=O)c2ccc([N+](=O)[O-])cc2)C3C1)OCO5 (stereo not shown) [Compound 1m, 11-O-(4-Nitrobenzoyl)haemanthamine] | 7.1 ± 0.3 10^−6 cm s^−1 | CNS+ (CNS(+): high BBB permeation predicted with Pe (10^−6 cm.s^−1) > 4.0) | > 4 | 14.7 ± 1.8 | > 500 | 27 ± 9 | 71 ± 7 | 69 ± 7 | 71 ± 1 | mixed mechanism of inhibition | 86 ± 4 | 69 ± 4 | 61 ± 8 | 76 ± 12 | mixed mechanism of inhibition | 73 ± 2 | 62 ± 10 | 74 ± 6 | PAMPA-BBB prediction of penetration in the CNS (in vitro; listed as 18m): CNS +; IC50 (GSK-3β; mean ± SEM of three independent measurements): 34.8 ± 0.01 µM
COC1C=CC23c4cc5c(cc4CN(CC2O)C3C1)OCO5 (stereo not shown) [Compound 1, Haemanthamine] | – | – | – | > 500 | – | – | – | – | – | – | – | – | – | – | – | – | – | – | hAChE inhibition activity, in words (hAChE [1]; cholinesterase assay): completely inactive; IC50 (hBuChE [2]): > 500 µM; hBuChE inhibition activity, in words (hBuChE [2]; cholinesterase assay): completely inactive; toxicity against the tested human cell lines, in words [13]: potent cytotoxic and apoptotic effects
